Measured values: PubChem BioAssay (NCI)
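Assay format: 96-well plates, 48-hour exposure. The concentration for 50% growth inhibition is given as GI50. Definition used: TGI = concentration required for complete inhibition of growth.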

Legend:
Assay in all cases: NCI anticancer screen, dose series, 48 h
HOP-92 NSCLC = test system: HOP-92 NSCLC
DU-145 prostate = test system: DU-145 prostate
MDA-MB-231 breast = test system: MDA-MB-231 breast
TK-10 renal = test system: TK-10 renal
UO-31 renal = test system: UO-31 renal
SK-OV-3 ovarian = test system: SK-OV-3 ovarian
A498 renal = test system: A498 renal
SNB-19 CNS = test system: SNB-19 CNS
NCI-H23 lung = test system: NCI-H23 lung
IGROV1 ovarian = test system: IGROV1 ovarian
LOX IMVI melanoma = test system: LOX IMVI melanoma
NCI-H522 lung = test system: NCI-H522 lung
HT29 colon = test system: HT29 colon
SF-539 CNS = test system: SF-539 CNS
SK-MEL-28 melanoma = test system: SK-MEL-28 melanoma
A549 NSCLC = test system: A549 NSCLC
BT-549 breast = test system: BT-549 breast
HL-60(TB) leukemia = test system: HL-60(TB) leukemia
ACHN renal = test system: ACHN renal
U251 CNS = test system: U251 CNS
NCI-H460 lung = test system: NCI-H460 lung
K-562 leukemia = test system: K-562 leukemia
SR leukemia = test system: SR leukemia
SF-295 CNS = test system: SF-295 CNS
EKVX NSCLC = test system: EKVX NSCLC
NCI/ADR-RES ovarian = test system: NCI/ADR-RES ovarian
COLO 205 colon = test system: COLO 205 colon
SNB-75 CNS = test system: SNB-75 CNS
SN12C renal = test system: SN12C renal
T-47D breast = test system: T-47D breast
SW-620 colon = test system: SW-620 colon
M14 melanoma = test system: M14 melanoma
HCT-116 colon = test system: HCT-116 colon
OVCAR-5 ovarian = test system: OVCAR-5 ovarian
NCI-H226 lung = test system: NCI-H226 lung
UACC-62 melanoma = test system: UACC-62 melanoma
786-0 renal = test system: 786-0 renal
MDA-MB-435 = test system: MDA-MB-435
MOLT-4 leukemia = test system: MOLT-4 leukemia
RXF 393 renal = test system: RXF 393 renal
MALME-3M melanoma = test system: MALME-3M melanoma
CAKI-1 renal = test system: CAKI-1 renal
KM12 colon = test system: KM12 colon
UACC-257 melanoma = test system: UACC-257 melanoma
OVCAR-3 ovarian = test system: OVCAR-3 ovarian
HOP-62 NSCLC = test system: HOP-62 NSCLC
SK-MEL-5 melanoma = test system: SK-MEL-5 melanoma
HCT-15 colon = test system: HCT-15 colon
MCF7 breast = test system: MCF7 breast
RPMI-8226 leukemia = test system: RPMI-8226 leukemia
CCRF-CEM leukemia = test system: CCRF-CEM leukemia
HCC-2998 colon = test system: HCC-2998 colon
SK-MEL-2 melanoma = test system: SK-MEL-2 melanoma
OVCAR-4 ovarian = test system: OVCAR-4 ovarian
OVCAR-8 ovarian = test system: OVCAR-8 ovarian
HS 578T breast = test system: HS 578T breast
SF-268 CNS = test system: SF-268 CNS
PC-3 prostate = test system: PC-3 prostate
MDA-N = test system: MDA-N

SMILES: Clc1ccc(N2CCC(N3CCCC3)CC2)cc1-c1nc2ccccc2[nH]1
- GI50 (HOP-92 NSCLC): 13.4 µM
- TGI (HOP-92 NSCLC): 42.8 µM
- GI50 (DU-145 prostate): 36.7 µM
- TGI (DU-145 prostate): > 100 µM
- GI50 (MDA-MB-231 breast): 17.1 µM
- TGI (MDA-MB-231 breast): 32.5 µM
- GI50 (TK-10 renal): 20.7 µM
- TGI (TK-10 renal): 42.2 µM
- GI50 (UO-31 renal): 16.7 µM
- TGI (UO-31 renal): 34 µM
- GI50 (SK-OV-3 ovarian): 24.5 µM
- TGI (SK-OV-3 ovarian): > 67.9 µM
- GI50 (A498 renal): 12.8 µM
- TGI (A498 renal): 27.8 µM
- GI50 (SNB-19 CNS): 33.7 µM
- TGI (SNB-19 CNS): > 100 µM
- GI50 (NCI-H23 lung): 25.7 µM
- TGI (NCI-H23 lung): > 71.3 µM
- GI50 (IGROV1 ovarian): 33.8 µM
- TGI (IGROV1 ovarian): > 100 µM
- GI50 (LOX IMVI melanoma): 18.1 µM
- TGI (LOX IMVI melanoma): 35.5 µM
- GI50 (NCI-H522 lung): 19.1 µM
- TGI (NCI-H522 lung): 38.7 µM
- GI50 (HT29 colon): 15.1 µM
- TGI (HT29 colon): 35.8 µM
- GI50 (SF-539 CNS): 17 µM
- TGI (SF-539 CNS): 32.1 µM
- GI50 (SK-MEL-28 melanoma): 16.5 µM
- TGI (SK-MEL-28 melanoma): 31.2 µM
- GI50 (A549 NSCLC): 27.2 µM
- TGI (A549 NSCLC): > 84.4 µM
- GI50 (BT-549 breast): 14.1 µM
- TGI (BT-549 breast): 31.2 µM
- GI50 (HL-60(TB) leukemia): 23.5 µM
- TGI (HL-60(TB) leukemia): 50.1 µM
- GI50 (ACHN renal): 26.7 µM
- TGI (ACHN renal): 67.4 µM
- GI50 (U251 CNS): 16.7 µM
- TGI (U251 CNS): 35.1 µM
- GI50 (NCI-H460 lung): 22.9 µM
- TGI (NCI-H460 lung): 50.1 µM
- GI50 (K-562 leukemia): 17 µM
- TGI (K-562 leukemia): 44.5 µM
- GI50 (SR leukemia): 20.1 µM
- TGI (SR leukemia): 58.7 µM
- GI50 (SF-295 CNS): 17.4 µM
- TGI (SF-295 CNS): 36.2 µM
- GI50 (EKVX NSCLC): 37.9 µM
- TGI (EKVX NSCLC): > 100 µM
- GI50 (NCI/ADR-RES ovarian): 29.4 µM
- TGI (NCI/ADR-RES ovarian): > 100 µM
- GI50 (COLO 205 colon): 16 µM
- TGI (COLO 205 colon): 30.8 µM
- GI50 (SNB-75 CNS): 15.5 µM
- TGI (SNB-75 CNS): 39 µM
- GI50 (SN12C renal): 25 µM
- TGI (SN12C renal): > 73.7 µM
- GI50 (T-47D breast): 21.6 µM
- TGI (T-47D breast): 88.1 µM
- GI50 (SW-620 colon): 16.8 µM
- TGI (SW-620 colon): 36 µM
- GI50 (M14 melanoma): 16.7 µM
- TGI (M14 melanoma): 31.8 µM
- GI50 (HCT-116 colon): 13.1 µM
- TGI (HCT-116 colon): 27.5 µM
- GI50 (OVCAR-5 ovarian): 26.5 µM
- TGI (OVCAR-5 ovarian): > 69.4 µM
- GI50 (NCI-H226 lung): 18.4 µM
- TGI (NCI-H226 lung): 43.8 µM
- GI50 (UACC-62 melanoma): 16.2 µM
- TGI (UACC-62 melanoma): 32.1 µM
- GI50 (786-0 renal): 14.7 µM
- TGI (786-0 renal): 28.7 µM
- GI50 (MDA-MB-435): 17.7 µM
- TGI (MDA-MB-435): 35.7 µM
- GI50 (MOLT-4 leukemia): 23.2 µM
- TGI (MOLT-4 leukemia): 67.7 µM
- GI50 (RXF 393 renal): 12.9 µM
- TGI (RXF 393 renal): 26.8 µM
- GI50 (MALME-3M melanoma): 17.4 µM
- TGI (MALME-3M melanoma): 33.6 µM
- GI50 (CAKI-1 renal): 19.3 µM
- TGI (CAKI-1 renal): 50 µM
- GI50 (KM12 colon): 22.6 µM
- TGI (KM12 colon): 55.2 µM
- GI50 (UACC-257 melanoma): 17 µM
- TGI (UACC-257 melanoma): 32.9 µM
- GI50 (OVCAR-3 ovarian): 17.8 µM
- TGI (OVCAR-3 ovarian): 40.4 µM
- GI50 (HOP-62 NSCLC): 19.8 µM
- TGI (HOP-62 NSCLC): 40.1 µM
- GI50 (SK-MEL-5 melanoma): 6.59 µM
- TGI (SK-MEL-5 melanoma): 17.1 µM
- GI50 (HCT-15 colon): 18.7 µM
- TGI (HCT-15 colon): 38.5 µM
- GI50 (MCF7 breast): 15.8 µM
- TGI (MCF7 breast): 30.7 µM
- GI50 (RPMI-8226 leukemia): 20.9 µM
- TGI (RPMI-8226 leukemia): 53.8 µM
- GI50 (CCRF-CEM leukemia): 25.9 µM
- TGI (CCRF-CEM leukemia): 79.4 µM
- GI50 (HCC-2998 colon): 18.6 µM
- TGI (HCC-2998 colon): 37.4 µM
- GI50 (SK-MEL-2 melanoma): 19.3 µM
- TGI (SK-MEL-2 melanoma): 36.6 µM
- GI50 (OVCAR-4 ovarian): 27.1 µM
- TGI (OVCAR-4 ovarian): > 91.4 µM
- GI50 (OVCAR-8 ovarian): 22.5 µM
- TGI (OVCAR-8 ovarian): 60.6 µM
- GI50 (HS 578T breast): 16.8 µM
- TGI (HS 578T breast): 51.7 µM
- GI50 (SF-268 CNS): 15.4 µM
- TGI (SF-268 CNS): 31.8 µM
- GI50 (PC-3 prostate): 30.9 µM
- TGI (PC-3 prostate): > 100 µM

SMILES: COc1cc(C(=O)OCCn2[nH]c(-c3ccc(Cl)cc3)nc2=S)cc(OC)c1OC
- TGI (HOP-92 NSCLC): 95.2 µM
- TGI (DU-145 prostate): > 100 µM
- TGI (MDA-MB-231 breast): > 100 µM
- TGI (TK-10 renal): > 100 µM
- TGI (UO-31 renal): 24.2 µM
- TGI (SK-OV-3 ovarian): > 100 µM
- TGI (A498 renal): > 100 µM
- TGI (SNB-19 CNS): > 100 µM
- TGI (NCI-H23 lung): > 100 µM
- TGI (LOX IMVI melanoma): > 100 µM
- TGI (NCI-H522 lung): > 100 µM
- TGI (HT29 colon): > 100 µM
- TGI (SF-539 CNS): > 100 µM
- TGI (SK-MEL-28 melanoma): > 100 µM
- TGI (A549 NSCLC): > 100 µM
- TGI (BT-549 breast): > 100 µM
- TGI (HL-60(TB) leukemia): > 100 µM
- TGI (ACHN renal): > 100 µM
- TGI (U251 CNS): > 100 µM
- TGI (NCI-H460 lung): > 100 µM
- TGI (K-562 leukemia): > 100 µM
- TGI (SR leukemia): > 100 µM
- TGI (SF-295 CNS): > 100 µM
- TGI (EKVX NSCLC): > 100 µM
- TGI (NCI/ADR-RES ovarian): > 100 µM
- TGI (COLO 205 colon): > 100 µM
- TGI (SN12C renal): > 100 µM
- TGI (MDA-N): > 100 µM
- TGI (SW-620 colon): > 100 µM
- TGI (M14 melanoma): > 100 µM
- TGI (HCT-116 colon): > 100 µM
- TGI (OVCAR-5 ovarian): > 100 µM
- TGI (NCI-H226 lung): > 100 µM
- TGI (UACC-62 melanoma): > 100 µM
- TGI (786-0 renal): > 100 µM
- TGI (MDA-MB-435): > 100 µM
- TGI (MOLT-4 leukemia): > 100 µM
- TGI (RXF 393 renal): > 100 µM
- TGI (MALME-3M melanoma): > 100 µM
- TGI (CAKI-1 renal): > 100 µM
- TGI (KM12 colon): > 100 µM
- TGI (UACC-257 melanoma): > 100 µM
- TGI (OVCAR-3 ovarian): > 100 µM
- TGI (HOP-62 NSCLC): > 100 µM
- TGI (SK-MEL-5 melanoma): > 100 µM
- TGI (HCT-15 colon): > 100 µM
- TGI (MCF7 breast): > 100 µM
- TGI (CCRF-CEM leukemia): > 100 µM
- TGI (HCC-2998 colon): > 100 µM
- TGI (SK-MEL-2 melanoma): > 100 µM
- TGI (OVCAR-4 ovarian): > 100 µM
- TGI (OVCAR-8 ovarian): > 100 µM
- TGI (HS 578T breast): > 100 µM
- TGI (SF-268 CNS): > 100 µM
- TGI (PC-3 prostate): > 100 µM
